Measurements as given in paper PMC6801819, “Exogenous Iron Increases Fasciocidal Activity and Hepatocellular Toxicity of the Synthetic Endoperoxides OZ78 and MT04” (International Journal of Molecular Sciences, 2019).

Assays:
HepG2 cells [1] = test: Cellular ATP content (CellTiter-Glo); format: cell-based, human; conditions: 24 h, HepG2
Experimental: Stock solutions of the drugs tested were prepared in DMSO 100% (v/v).
In viability assays, HepG2 cells were treated with 0.1% Triton-X or 0.1% DMSO for positive or negative control, respectively.
To assess cellular ATP content, HepG2 cells were seeded in white-wall 96-well plates with a clear bottom (Nunc). One day after seeding, cells were treated with the respective drugs. […] Luminescence was measured using Tecan M200 Infinite Pro.

HepG2 cells [2] = test: Cellular reactive oxygen species (DCF-DA); format: cell-based, human; conditions: 24 h, HepG2; for cellular ROS content: drug + Fe2+; for increase of cellular ROS content, factor: drug alone (100 or 500 µM), no exogenous iron
Experimental: Stock solutions of the drugs tested were prepared in DMSO 100% (v/v). […] LC-MS measurements confirmed the stability of the compounds (data not shown). Treatments with AS, MT04, or OZ78 (100 or 500 µM) were performed either alone or in combination with 8% (v/v) hemin or FeCl2 solution for 24 h. The final iron concentration used was 122 µM (stock 1.5 mM) based on previous in vitro studies with F. hepatica. Dichlorodihydrofluorescein diacetate (DCF-DA) dissolved in DMSO was used to assess cellular formation of reactive oxygen species (ROS). HepG2 cells were seeded in a black-wall 96 well plate with a clear bottom as described above. Briefly, 30 min before treatment started, DCF-DA was added to the cells at a final concentration of 25 µM. DCF-DA was removed completely before the drugs were added. ROS was measured after 90 min and 24 h of drug exposure using a Tecan M200 Infinite Pro (excitation 485 nm, emission 535 nm).

[3] = test system: complex II of the mitochondrial electron transport chain; test: High-resolution respirometry, succinate + rotenone (complex II); format: cell-based, human; conditions: AS 100 µM, OZ78 500 µM, MT04 500 µM, 24 h, permeabilized HepG2, vs control
Experimental: After incubation with different drugs for 24 h, HepG2 cells were trypsinized and resuspended in DMEM with 10% fetal calf serum (FCS) and then centrifuged for 5 min (180× g). Cells were resuspended in MiRo5 respiration buffer (110 mM sucrose, 0.5 mM ethylene glycol-bis(β-aminoethyl ether)-N,N,N′,N′-tetraacetic acid (EGTA), 3.0 mM MgCl2, 80 mM KCl, 60 mM K-lactobionate, 10 mM KH2PO4, 20 mM taurine, 20 mM Hepes, 1.0 g/L BSA, pH 7.1). Respiration rates were measured at 37 °C using a high-resolution oxygraph (Oxygraph-2k, Oroboros Instruments, Innsbruck, Austria). Respiration rates were calculated as the time derivative of oxygen concentration measured in the closed respirometer. The amplified signal was recorded in a computer with an online display of the calibrated oxygen concentration and oxygen flux (DatLab software for data acquisition and analysis; Oroboros Instruments). The mitochondrial complex activity was assessed by a standard titration protocol: first cells were permeabilized with digitonin (10 µg/1 million cells) for 5 min. Afterward, for complex I-dependent maximal respiration stimulation, substrates added were glutamate (10 mM) and malate (5 mM), which provide nicotinamide adenine dinucleotide (NADH) to the respiratory chain (complex I activation), followed by addition of ADP (2.5 mM) (state 3, maximal respiration). After a stable signal was reached and marked, rotenone (0.5 µM) was added to inhibit complex I, and then complex II-dependent respiration was stimulated by adding succinate (10 mM), which provides flavin adenine dinucleotide (FADH) to the respiratory chain (complex II activation, state 3). Afterward, complex III was inhibited by antimycin A (2.5 µM), and complex IV-dependent respiration was measured by adding ascorbate (2 mM) and N,N,N′,N′-tetramethyl-p-phenylendiamine (TMPD, 0.5 mM). We confirmed the integrity of the outer mitochondrial membrane by showing the absence of a stimulatory effect of exogenous cytochrome c (10 µM) on respiration. Respiration was expressed as oxygen consumption per 5 × 10^5 cells.

human liver microsomes = test: Metabolism in the presence of human liver microsomes; format: in vitro ADME; conditions: 10 µM, 2 hours; for parent substance metabolized: functional human liver microsomes, 37 °C
Experimental: The metabolism of AS, MT04, and OZ78 was tested in the presence of human liver microsomes or heat-inactivated microsomes (70 °C for 20 min, referred to as control microsomes) at 37 °C. AS, MT04 or OZ78 (10 µM each) were added to 1.0 mL of reaction mixture consisting of microsomes ([…]), an NADPH regenerating system, and PBS buffer, pH 7.4. Adding the drugs started the reaction. Aliquots of 100 µL were transferred into Eppendorf tubes after 0, 15, 30, 60, 120 min. The reaction was stopped by adding 300 µL methanol. The samples were then vortexed and centrifuged at 3000 g for 30 min. Supernatants were taken for LC-MS analysis.
LC-MS/MS measurements for AS were performed as described recently. Briefly, sample measurements were done with a high-performance liquid chromatography (HPLC) system (Shimadzu, Kyoto, Japan) connected to an API 365 triple-quadrupole mass spectrometer (PE Biosystems, Foster City, CA, USA) with a turbo ion spray interface. AS was detected in positive ionization mode by selected reaction monitoring (SRM) with a transition of 267.4→163.0. For analyte separation, a reversed phase column was used (2.1 × 10 mm guard cartridge (3 μm) connected to a 2.1 × 20 mm Atlantis T3 3 μm analytical column (Waters, Milford, MA, USA)). A gradient was used (mobile phase A: 5 mM ammonium formiate plus 0.15% (v/v) formic acid in ultra-pure water, mobile phase B: 0.15% (v/v) formic acid in acetonitrile) at a flow rate of 0.3 mL/min.
The analysis of MT04 and OZ78 [42] was conducted using the same system as described for AS. A phenomenex C8 (50mm × 2.00mm, 5µm, Brechbühler AG, Schlieren, Switzerland) was used for chromatographic separation with a gradient (mobile A: 5 mM ammonium formiate in water and mobile B: acetonitrile) at a flow rate of 0.3 mL/min. MS was conducted in negative ionization mode. For OZ78 and MT04 a mass of 321.4 and 337.4, respectively, was detected.

SMILES: O=C(O)C[C@H]1CC[C@]2(CC1)OOC1(O2)C2CC3CC(C2)CC1C3 (stereo partly drawn) [OZ78]
- decrease in cellular ATP content as compared to DMSO (HepG2 cells [1]; 100 µM + Fe2+ (iron)): not toxic
- decrease in cellular ATP content as compared to DMSO (HepG2 cells [1]; 100 µM + hemin): 12%
- decrease in cellular ATP content as compared to DMSO (HepG2 cells [1]; 100 µM alone): not toxic
- decrease in cellular ATP content as compared to DMSO (HepG2 cells [1]; 500 µM + Fe2+ (iron)): not enhanced by the addition of iron or hemin
- decrease in cellular ATP content as compared to DMSO (HepG2 cells [1]; 500 µM + hemin): not enhanced by the addition of iron or hemin
- decrease in cellular ATP content as compared to DMSO (HepG2 cells [1]; 500 µM alone): 14%
- cellular ROS content (HepG2 cells [2]): increased the cellular ROS content
- increase of cellular ROS content, factor (HepG2 cells [2]): 5
- inhibition of mitochondrial respiration, succinate + rotenone (complex II) [3]: only numerically, but without reaching statistical significance
- parent substance metabolized (human liver microsomes): did not show a decrease

SMILES: C[C@H]1[C@H](OC(=O)CCC(=O)O)O[C@@H]2O[C@@]3(C)CC[C@H]4[C@H](C)CC[C@@H]1[C@@]24OO3 [AS, artesunate, reference compound]
- decrease in cellular ATP content as compared to DMSO (HepG2 cells [1]; 100 µM + Fe2+ (iron)): 93%
- decrease in cellular ATP content as compared to DMSO (HepG2 cells [1]; 100 µM + hemin): 95%
- decrease in cellular ATP content as compared to DMSO (HepG2 cells [1]; 100 µM alone): 55%
- decrease in cellular ATP content as compared to DMSO (HepG2 cells [1]; 500 µM + Fe2+ (iron)): complete depletion in cellular ATP
- decrease in cellular ATP content as compared to DMSO (HepG2 cells [1]; 500 µM + hemin): complete depletion in cellular ATP
- decrease in cellular ATP content as compared to DMSO (HepG2 cells [1]; 500 µM alone): complete depletion in cellular ATP
- cellular ROS content (HepG2 cells [2]): increased the cellular ROS content
- increase of cellular ROS content, factor (HepG2 cells [2]): 5
- inhibition of mitochondrial respiration, succinate + rotenone (complex II) [3]: 83%
- parent substance metabolized (human liver microsomes): 94%
- degradation of parent substance (human liver microsomes; heat-inactivated microsomes): no degradation was detected

SMILES: O=C(O)CC1CCC2(CC1)OOC1(OO2)C2CC3CC(C2)CC1C3 (stereo not drawn) [MT04]
- decrease in cellular ATP content as compared to DMSO (HepG2 cells [1]; 100 µM + Fe2+ (iron)): 20%
- decrease in cellular ATP content as compared to DMSO (HepG2 cells [1]; 100 µM + hemin): 40%
- decrease in cellular ATP content as compared to DMSO (HepG2 cells [1]; 100 µM alone): not toxic
- decrease in cellular ATP content as compared to DMSO (HepG2 cells [1]; 500 µM + Fe2+ (iron)): 65%
- decrease in cellular ATP content as compared to DMSO (HepG2 cells [1]; 500 µM + hemin): 65%
- decrease in cellular ATP content as compared to DMSO (HepG2 cells [1]; 500 µM alone): 20%
- cellular ROS content (HepG2 cells [2]): not
- inhibition of mitochondrial respiration, succinate + rotenone (complex II) [3]: 61%
- parent substance metabolized (human liver microsomes): did not show a decrease
